Test results as given in US10807960B2, “Compounds, compositions, and methods for controlling biofilms” (KATHOLIEKE UNIVERSITEIT LEUVEN, priority 2015, dated 2020).
Marks after values point to notes of the source that are not given here.

Legend:
[1] = test system: C. albicans SC5314 + S. epidermidis; assay: mixed C. albicans/S. epidermidis biofilm assay, selective plating; type: cell-based, Candida albicans; Staphylococcus epidermidis; details: for CFUs % survival C.a.: C. albicans in mixed biofilm with S. epidermidis; for CFUs % survival C.a. / CFUs % survival S.e.: 37° C.; for CFUs % survival S.e.: S. epidermidis in mixed biofilm with C. albicans
Procedure: The concentrations 25 μM (0.0625% DMSO or ethanol) and 100 μM (0.25% DMSO or ethanol) were tested. After 24 h of incubation at 37° C., biofilms were washed with PBS and fresh medium with or without compounds was added. After further incubation for 48 h at 37° C., the biofilms were washed with PBS after which the cells were re-suspended in 100 μl of PBS by scraping off, sonication (1 min, 45 kHz, USC300-T; VWR, Radnor, Pa., USA) and vigorously pipetting up-and-down. Finally, the biofilm cells were diluted in PBS and plated on YPD agar plates containing 100 mg/L ampicillin and TSA plates containing 25 mg/L amphotericin B, to determine the number of fungal and bacterial CFUs after 2 days of incubation at 37° C., respectively. The percentage of C. albicans SC5314 and S. epidermidis cells was determined relative to the DMSO or ethanol control treatment.

Caenorhabditis elegans = details: as previously reported; cited from earlier work
bone cells = details: as previously reported; cited from earlier work
[2] = test system: eukaryotic tumor cell lines; details: as previously reported; cited from earlier work

| Compound | activity against S. epidermidis in the C. albicans/S. epidermidis biofilm (in words) ([1]; 100 μM) | CFUs % survival C.a. ([1]; 25 μM) | CFUs % survival C.a. ([1]; 100 μM) | CFUs % survival S.e. ([1]; 25 μM) | CFUs % survival S.e. ([1]; 100 μM) | biofilm formation of C. albicans/S. epidermidis (in words) ([1]; 25 μM) | toxicity (in words) (Caenorhabditis elegans) | toxicity (in words) (bone cells) | toxicity (in words) [2] |
| --- | --- | --- | --- | --- | --- | --- | --- | --- | --- |
| Clc1ccc(-c2cnc(NC3CCCC3)[nH]2)cc1 [Compound 5] | complete inhibition | 167.9% | 594.7% | 72.0% | 2.3* % | – | – | – | – |
| CC(C)CNc1ncc(-c2ccc(Cl)cc2)[nH]1 [Compound 3] | – | 58.3* % | 235.1% | 64.6* % | 13.2* % | – | – | – | – |
| CCCCCCCCn1c(-c2ccc(Cl)cc2)cnc1N [Compound 2] | – | <0.6* % | <0.2* % | 0.0* % | 0.0* % | completely inhibited | strong toxicity | strong toxicity | strong toxicity |
